Test results published in patent US20240002393A1, “SUBSTITUTED BENZO[f][l ,2,4JTRIAZOL0[4,3-a][l ,4J[…] GABA A GAMMA! POSITIVE ALLOSTERIC MODULATORS” (Hoffmann-La Roche Inc., priority 2020, published 2024).

Legend:
[1] = target: human GABAA α5β2γ1 receptor (Homo sapiens (Human), UniProt P31644+Q8N1C3); assay: Radioligand binding assay, [3H]RO7239181 competition, γ1-containing GABAA subtypes; conditions: HEK293F membranes, mean of two determinations
Procedure: The affinity of compounds at GABAA γ1 subunit-containing receptors was measured by competition for [^3H]RO7239181 (67.3 Ci/mmol; Roche) binding to membranes from HEK293F cells (ThermoFisher R79007) expressing human (transiently transfected) receptors of composition α5β2γ1, α2β2γ1, α1β2γ1. For better protein expression of the α2 subunit-containing receptors, the 28 amino acid long signal peptide (Met1 to Ala28) of the human GABAA α2 subunit was substituted by the 31 amino acid long signal peptide (Met1 to Ser31) of human GABAA α5 subunit.
Harvested pellets from HEK293F cells expressing the different GABAA receptor subtypes were resuspended in Mannitol Buffer pH 7.2-7.4 (Mannitol 0.29M, Triethylamine 10 mM, Acetic acid 10 mM, EDTA 1 mM plus protease inhibitors (20 tablets Complete, Roche Diagnostics Cat. No. 05 056 489 001 per liter)), washed two times and then resuspended at 1:10 to 1:15 dilution in the same buffer. Cell disruption was performed by stirring the suspension in a Parr vessel #4637 at 435 psi for 15 minutes, and then the suspensions were centrifuged at 1000×g for 15 minutes at 4° C. (Beckman Avanti J-HC; rotor JS)-4.2). The supernatant (S1) was transferred in a 21 Schott flask and the pellet (P1) was resuspended with Mannitol Buffer up to 175 ml. The resuspended pellet was transferred into a 250 ml Corning centrifugal beaker and centrifuged at 1500×g for 10 minutes at 4° C. (Beckman Avanti J-HC; rotor JS)-4.2). The supernatant (S1) was then transferred in the 21 Schott flask and the pellet was discarded. The supernatants (S1) were centrifuged in 500 ml Beckman polypropylene centrifugal beaker at 15,000×g for 30 minutes at 4° C. (Beckman Avanti J-20 XP; rotor JLA-10.500). The pellet (P2) was resuspended with Mannitol Buffer 1:1 and frozen at −80° C. The supernatant (S2) was centrifuged in 100 ml Beckman polypropylene centrifugal tubes at 48000×g for 50 minutes at […] (Beckman Avanti J-20 XP; rotor JA-18). The supernatant (S3) was discarded and the pellet (P3) was resuspended with 1:1 Mannitol Buffer. The P2 and P3 protein concentration was determined with the BIORAD Standard assay method with bovine serum albumin as standard and measured on the NANO-Drop 1000. The membrane suspension was aliquots (500 μl per tube) and stored at −80° C. until required.
Membrane homogenates were resuspended and polytronised (Polytron PT1200E Kinematica AG) in Potassium Phosphate 10 mM, KCl 100 mM binding buffer at pH 7.4 to a final assay concentration determined with a previous experiment.
Radioligand binding assays were carried out in a volume of 200 µL (96-well plates) which contained 100 μL of cell membranes, [^3H]RO7239181 at a concentration of 1.5 nM (α5β2γ1) or 20-30 nM (α1β2γ1, 2β2γ1) and the test compound in the range of [0.3-10000]×10^−9 M. Nonspecific binding was defined by 10×10^−6 (α5β2γ1) and 30×10^−6 M RO7235136 and typically represented less than 5% (α5β2γ1) and less than 20% (α1β2γ1, α2β2γ1) of the total binding. Assays were incubated to equilibrium for 1 hour at 4° C. and then, membranes were filtered onto unifilter (96-well white microplate with bonded GF/C filters preincubated 20-50 minutes in 0.3% Polyethylenimine) with a Filtermate 196 harvester (Packard BioScience) and washed 4 times with cold Potassium Phosphate 10 mM pH 7.4, KCl 100 mM binding buffer. After drying, filter-retained radioactivity was detected by liquid scintillation counting. K, values were calculated using Excel-Fit (Microsoft) and are the means of two determinations.
Representative test results, obtained by the above described assay measuring binding affinity to HEK293 cells expressing human (h) receptors, are shown in the Table 1.

h-GABA-A α2β2γ1 = h-GABA-A α2β2γ1 (Homo sapiens (Human), UniProt P47869+Q8N1C3); assay: Two-electrode voltage clamp electrophysiology in Xenopus oocytes expressing GABAA receptors; type: cell-based; conditions: for Efficacy (GABA)%: % modulation of GABA EC20 = 100*(Fold increase−1), compound at 30-fold Ki; for Fold increase h-GABA-A α2β2γ1 oocyte @ 30-fold Ki: GABA EC20, test compound at about 30-fold its Ki α2β2γ1, at least 3 oocytes
Procedure: Xenopus laevis oocytes at maturation stages V-VI were used for the expression of cloned mRNA encoding GABAA receptor subunits. Oocytes ready for RNA micro-injection were bought from Ecocyte, Castrop-Rauxel, Germany and stored in modified Barth's medium (composition in mM: NaCl 88, KCl 1, NaHCO3 2.4, HEPES 10, MgSO4 0.82, CaNO3 0.33, CaCl2 0.33, pH=7.5) at 20° C. until the experiment.
Oocytes were plated in 96-well plates for microinjection using the Roboinject automated instrument (MultiChannelSystems, Reutlingen, Germany). Approximately 50 nL of an aqueous solution containing the RNA transcripts for the subunits of the desired GABAA receptor subtype was injected into each oocyte. […] Oocytes were kept in modified Barth's medium (composition in mM: NaCl 88, KCl 1, NaHCO3 […], HEPES 10, MgSO4 0.82, CaNO3 0.33, CaCl2 0.33, pH=7.5) at 20° C. until the experiment.
Electrophysiological experiments were performed using the Roboocyte instrument (MultiChannelSystems, Reutlingen, Germany) on days 3 to 5 after the micro-injection of mRNA. During the experiment the oocytes were constantly superfused by a solution containing (in mM) NaCl 90, KCl 1, HEPES 5, MgCl2 1 CaCl2 1 (pH 7.4). Oocytes were impaled by two glass microelectrodes (resistance: 0.5-0.8 MΩ) which were filled with a solution containing KCl 1M+K-acetate 1.5 M and voltage-clamped to −80 mV. The recordings were performed at room temperature using the Roboocyte two-electrode voltage clamp system (Multichannelsystem). After an initial equilibration period of 1.5 min GABA was added for 1.5 min at a concentration evoking approximately 20% of a maximal current response (EC20). After another rest interval of 2.5 min GABA was again added evoking a response of similar amplitude and shape. […] Current traces were recorded at a digitization rate of 10 Hz during and shortly before and after the GABA application.
Each compound and concentration was tested on at least 3 oocytes. Different oocytes were used for different compound concentrations.
For the analysis, the digitized current traces of the first and second GABA response were superimposed and, if necessary, rescaled to equal maximal amplitudes. The ratio between the two responses during the time interval of test compound application was calculated point by point. The extremum of the resulting “ratio trace” was taken as the efficacy (“Fold increase”) of the compound expressed as “% modulation of GABA EC20” (100*(Fold increase−1)).

SMILES	Ki [1] [nM]	Efficacy (GABA)% (h-GABA-A α2β2γ1) [%]	Fold increase h-GABA-A α2β2γ1 oocyte @ 30-fold Ki (h-GABA-A α2β2γ1)
COC[C@@H]1N=C(c2c(F)cccc2F)c2c(ccc(Br)c2Cl)-n2c(C)nnc21 [Example 100, (4R)-8-bromo-7-chloro-6-(2,6-difluorophenyl)-4-(methoxymethyl)-1-methyl-4H-[1,2,4]triazolo[4,3-a][1,4]benzodiazepine]	3.4	64	1.64
C[C@@H]1N=C(c2ccccc2F)c2c(ccc(Br)c2Cl)-n2c(-c3cccnn3)nnc21 [Example 32, (4S)-8-bromo-7-chloro-6-(2-fluorophenyl)-4-methyl-1-pyridazin-3-yl-4H-[1,2,4]triazolo[4,3-a][1,4]benzodiazepine]	1.3	105	2.05
C[C@@H]1N=C(c2c(F)cccc2F)c2c(ccc(Cl)c2Cl)-n2c(-c3cccnn3)nnc21 [Example 56, (4S)-7,8-dichloro-6-(2,6-difluorophenyl)-4-methyl-1-pyridazin-3-yl-4H-[1,2,4]triazolo[4,3-a][1,4]benzodiazepine]	0.8	78	1.78
C[C@@H]1N=C(c2c(F)cccc2F)c2c(ccc(C(F)(F)F)c2Cl)-n2cnnc21 [Example 107, (4S)-7-chloro-6-(2,6-difluorophenyl)-4-methyl-8-(trifluoromethyl)-4H-[1,2,4]triazolo[4,3-a][1,4]benzodiazepine]	3	147	2.47
C[C@@H]1N=C(c2c(F)cccc2F)c2c(ccc(Cl)c2Br)-n2c(-c3cccnn3)nnc21 [Example 73, (4S)-7-bromo-8-chloro-6-(2,6-difluorophenyl)-4-methyl-1-(pyridazin-3-yl)-4H-benzo[f][1,2,4]triazolo[4,3-a][1,4]diazepine]	2	105	2.05
Cc1ccc(-c2nnc3n2-c2ccc(Cl)c(Cl)c2C(c2c(F)cccc2F)=N[C@H]3C)nn1 [Example 86, (4S)-7,8-dichloro-6-(2,6-difluorophenyl)-4-methyl-1-(6-methylpyridazin-3-yl)-4H-[1,2,4]triazolo[4,3-a][1,4]benzodiazepine]	1.4	80	1.80
C[C@@H]1N=C(c2ncccc2F)c2c(ccc(Cl)c2Cl)-n2c(-c3ccncn3)nnc21 [Example 66, (4S)-7,8-dichloro-6-(3-fluoro-2-pyridyl)-4-methyl-1-pyrimidin-4-yl-4H-[1,2,4]triazolo[4,3-a][1,4]benzodiazepine]	8	143	2.43
C[C@@H]1N=C(c2c(F)cccc2F)c2c(ccc(Cl)c2Cl)-n2c(-c3cnn(C)c3)nnc21 [Example 53, (4S)-7,8-dichloro-6-(2,6-difluorophenyl)-4-methyl-1-(1-methylpyrazol-4-yl)-4H-[1,2,4]triazolo[4,3-a][1,4]benzodiazepine]	1.1	32	1.32
Cc1nnc2n1-c1ccc(C(C)(F)F)c(Cl)c1C(c1c(F)cccc1F)=N[C@H]2C [Example 93, (4S)-7-chloro-8-(1,1-difluoroethyl)-6-(2,6-difluorophenyl)-1,4-dimethyl-4H-[1,2,4]triazolo[4,3-a][1,4]benzodiazepine]	3.1	169	2.69
